ChEMBL document CHEMBL1201862, “PubChem BioAssay data set” (2004)
Active and inactive are the calls of the source.

How the values were obtained:
[1] = test system: BJ; assay: cytotoxicity toward BJ-TERT fibroblasts, dose response, cell-based, RAS-independent, luminescence (AID 1933); assay type: functional; conditions: Homo sapiens
[2] = test system: BJ; assay: cells; assay type: functional, cell-based; conditions: Homo sapiens
[3] = target: Luciferin 4-monooxygenase (Photinus pyralis, UniProt P08659); assay: firefly luciferase enzyme inhibitors, dose response, biochemical, luminescence (AID 1891)
[4] = Luminescence Cell-Based Dose Confirmation HTS to Identify Inhibitors of Platelet Dense Granule Release. [Related pubchem assays: 1663 (Primary HTS), 1678 (Summary of Project)]; assay type: functional
[5] = test system: BJ; assay: cytotoxicity toward BJ-TERT-LT-ST fibroblasts, dose response, cell-based, RAS-independent, luminescence (AID 1935); assay type: functional; conditions: Homo sapiens;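 note: BJ fibroblasts immortalized with TERT plus LT and ST oncogenes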
[6] = cytotoxicity toward DRD oncogenic fibroblasts, dose response, cell-based, non-viral oncogenic, luminescence (AID 1934); assay type: functional; conditions: Homo sapiens
[7] = inhibition of ADP-Glo detection reagents, dose response, artefact control for CDK5 inhibitor project, biochemical, luminescence, cherry-picked samples, set 2 (AID 504546); assay type: functional
[8] = target: T1, Microphthalmia-associated transcription factor (Homo sapiens, UniProt O75030); assay: TRPM1 promoter luciferase signal decrease, dose response, MITF inhibitor project, cell-based, SK-MEL-5, cherry-picked, set 3 (AID 493073); assay type: functional
T1 sequence (O75030 whole entry): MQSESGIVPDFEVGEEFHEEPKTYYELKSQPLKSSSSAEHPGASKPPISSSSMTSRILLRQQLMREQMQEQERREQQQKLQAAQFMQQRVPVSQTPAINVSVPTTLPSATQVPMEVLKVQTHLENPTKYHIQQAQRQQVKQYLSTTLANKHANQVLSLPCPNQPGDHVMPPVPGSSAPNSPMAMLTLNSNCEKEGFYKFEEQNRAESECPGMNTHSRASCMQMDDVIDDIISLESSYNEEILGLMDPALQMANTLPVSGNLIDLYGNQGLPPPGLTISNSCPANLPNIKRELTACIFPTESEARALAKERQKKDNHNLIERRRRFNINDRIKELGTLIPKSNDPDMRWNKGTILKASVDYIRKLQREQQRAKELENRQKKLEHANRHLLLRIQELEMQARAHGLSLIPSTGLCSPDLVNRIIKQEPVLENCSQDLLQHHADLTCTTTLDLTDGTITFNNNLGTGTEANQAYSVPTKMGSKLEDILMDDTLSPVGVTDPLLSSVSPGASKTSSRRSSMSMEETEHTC

[9] = ADP-Glo luciferase interference without Dyrk1A, dose response, artefact control for Dyrk1A inhibitor project, biochemical, luminescence, cherry-pick, set 02 (AID 588348)
[10] = target: Dual specificity tyrosine-phosphorylation-regulated kinase 1A (Rattus norvegicus, UniProt Q63470); assay type: biochemical, Homo sapiens
[11] = A549 cell cytotoxicity, dose response, cytotoxicity control, plate reader, cherry-pick, antagonist series (AID 743412); assay type: functional, cell-based
[12] = HepG2 cell cytotoxicity, dose response, cytotoxicity control, plate reader, cherry-pick, antagonist series (AID 743416); assay type: functional, cell-based
[13] = LGR2 antagonists, dose response, cell-based, HEK293, CRE-luciferase reporter, cherry pick, set 2 (AID 743343); assay type: functional;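 note: transfected cells were stimulated with diluted bursicon conditioned medium after compound addition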
[14] = MC4R antagonists, dose response, counter-screen for LGR2 antagonist project, cell-based, plate reader, cherry pick (AID 743444); assay type: functional;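 note: transfected HEK 293 cells stimulated with alpha-MSH peptide; potency of inhibitors of the alpha-MSH evoked signal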
[15] = HEK293 cell cytotoxicity, dose response, cytotoxicity control, plate reader, cherry-picked samples (AID 743446); assay type: functional, cell-based
[16] = HepG2 cell cytotoxicity, dose response, cytotoxicity control for Shn3 inhibitor project, CellTiter-Glo, cherry-picked (AID 624134); assay type: functional, cell-based
[17] = target: T2, High affinity choline transporter 1 (Homo sapiens, UniProt Q9GZV3); assay: CHT activators, dose response, cell-based, 10-point CRC, membrane potential dye (AID 602376); assay type: functional
T2 sequence (Q9GZV3 whole entry): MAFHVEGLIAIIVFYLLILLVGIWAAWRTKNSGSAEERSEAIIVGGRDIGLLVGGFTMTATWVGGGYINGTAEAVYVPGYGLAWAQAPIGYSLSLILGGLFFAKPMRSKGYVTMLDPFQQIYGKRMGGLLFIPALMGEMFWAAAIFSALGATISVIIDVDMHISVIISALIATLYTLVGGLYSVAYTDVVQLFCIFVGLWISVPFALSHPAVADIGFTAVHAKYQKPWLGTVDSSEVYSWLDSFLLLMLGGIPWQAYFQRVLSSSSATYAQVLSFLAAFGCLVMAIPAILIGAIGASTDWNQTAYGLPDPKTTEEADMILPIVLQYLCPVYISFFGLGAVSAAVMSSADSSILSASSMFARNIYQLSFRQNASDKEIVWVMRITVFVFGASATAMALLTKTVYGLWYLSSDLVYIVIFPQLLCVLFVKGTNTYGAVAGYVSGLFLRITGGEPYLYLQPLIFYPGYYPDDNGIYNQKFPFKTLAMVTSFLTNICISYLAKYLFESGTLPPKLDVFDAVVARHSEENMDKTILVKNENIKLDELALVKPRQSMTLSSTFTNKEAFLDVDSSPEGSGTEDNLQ

[18] = test system: HEK293; assay: inhibitors of LMP1-driven NF-kB reporter, dose response, cell-based, HEK293, luciferase, cherry-pick (AID 588343); assay type: functional; conditions: Homo sapiens
[19] = test system: H9c2; assay: cells; assay type: functional, cell-based; conditions: Rattus norvegicus, H9c2, Myocardium;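 note: confirmatory concentration-response retest of ultra-high-throughput screening hits for modulation of myocardial damage; cell death induced by hydrogen peroxide oxidative stress; compound pretreatment for 60 min then peroxide exposure for 2 h; potency is for protecting the cells against peroxide damage rather than for killing them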
[20] = target: Heat shock protein HSP 90-alpha (Homo sapiens, UniProt P07900); assay type: functional, organism-based
[21] = test system: HEK293; assay: cells; assay type: functional, cell-based; conditions: Homo sapiens
[22] = target: Nuclear receptor subfamily 0 group B member 1 (Homo sapiens, UniProt P51843); assay: Luminescence-based cell-based high throughput dose response assay for inhibitors of the orphan nuclear receptor subfamily 0, group B, member 1 (DAX1; NR0B1). [Related pubchem assays (depositor defined):AID504766, AID504790]; assay type: functional
[23] = inhibitors of intracellular T. cruzi replication, confirmation, NIH3T3 host cells, beta-gal luminescence (AID 2044); assay type: functional, cell-based;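 note: intracellular parasites grown in NIH/3T3 mouse fibroblasts as host cells; luminescent beta-galactosidase reporter signal from transgenic T. cruzi replicating inside host cells; inhibitors lower the luminescence signal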
[24] = microbe, parasite or virus in culture; assay type: functional; conditions: Mycobacterium tuberculosis
[25] = cytotoxicity toward NIH3T3 fibroblasts, dose response, counter-screen, cell-based, ATP luminescence, mouse fibroblasts (AID 2010); assay type: functional;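 note: cells exposed to compound for about 90 hours before reading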
[26] = THP-1 cell cytotoxicity, dose response, cytotoxicity control for non-replicating M. tuberculosis project (AID 489025); assay type: functional
[27] = cells; assay type: functional
[28] = A Cell Based Secondary Assay to Explore Cytotoxicity in THP-1 Cells of Compounds that Modulate Mycobacterium tuberculosis in Media Containing Glycerol versus Media without Glycerol (2).; assay type: functional
[29] = Vero cell cytotoxicity, cytotoxicity control for M. tuberculosis inhibitor project, purified and synthesized samples, set 3 (AID 504684); assay type: functional
[30] = A Cell Based Secondary Assay to Explore Cytotoxicity in HepG2 Cells of Compounds that Modulate Mycobacterium tuberculosis in Media Containing Glycerol versus Media without Glycerol (2).; assay type: functional
[31] = target: Cysteine protease ATG4B (Homo sapiens, UniProt Q9Y4P1); assay type: functional;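 note: Fluorescence-based dose-response confirmation assay measuring inhibition of ATG4B activity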
[32] = target: Phospholipase A2 (Homo sapiens, UniProt P04054); assay type: functional;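 note: confirmatory dose-response counterscreen on phospholipase A2, testing hits that came from an ultra-high-throughput screen for ATG4B inhibitors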
[33] = target: Phospholipase D1 (Homo sapiens, UniProt Q13393); assay: PLD1 inhibitor potency in cells, dose response (AID 602151); assay type: functional;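 note: cellular PLD1 assay in Calu-1 cells stimulated with PMA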
[34] = target: Phospholipase D2 (Homo sapiens, UniProt O14939); assay: PLD2 inhibitor potency in cells, dose response (AID 602147); assay type: functional;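 note: cellular assay in HEK293 cells overexpressing GFP-tagged PLD2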
[35] = test system: HEK293; assay: cytotoxicity in HEK293T NF-kB-Luc cells, SAR follow-up, cytotoxicity control for NF-kB activator project, cell-based, resazurin fluorescence (AID 493251); assay type: functional; conditions: Homo sapiens
[36] = test system: Jurkat; assay: SAR Analysis of small molecule inhibitors of both B-cell and T-cell specific antigen receptor-induced NF-kB activation in a Jurkat cell line using a luminescence assay. [Related pubchem assays (depositor defined):AID435003, AID435022, AID465, AID489029]; assay type: functional, cell-based; conditions: Homo sapiens
[37] = test system: HEK293; assay: SAR Analysis of small molecule inhibitors of both B-cell and T-cell specific antigen receptor-induced NF-kB activation in a HEK-293T cell line using a luminescence assay. [Related pubchem assays (depositor defined):AID435003, AID435022, AID465, AID489019, AID489029]; assay type: functional, cell-based; conditions: Homo sapiens
[38] = test system: CHO-K1; assay: Counterscreen for antagonists of the orexin 1 receptor (OX1R; HCRTR1): Homogeneous time resolved fluorescence (HTRF)-based cell-based dose response assay to identify antagonists of the parental CHO-K1 cell line. [Related pubchem assays (depositor defined):AID434989, AID435008, AID463079, AID485270, AID492963, AID492964, AID492965, AID493232, AID504699, AID504701]; assay type: functional; conditions: Cricetulus griseus;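 note: potency for inhibition of ATP-stimulated IP1 production as antagonists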
[39] = Counterscreen for antagonists of the orexin 1 receptor (OX1R; HCRTR1): Fluorescence-based cell-based high throughput dose response assay to identify antagonists of the parental CHO cell line. [Related pubchem assays (depositor defined):AID434989, AID435008, AID463079, AID485270, AID492963, AID492964, AID492965, AID493232, AID504699, AID504701]; assay type: functional
[40] = target: T3, Orexin/Hypocretin receptor type 1 (Homo sapiens, UniProt O43613); assay: Homogeneous Time Resolved Fluorescence (HTRF)-based cell-based high throughput dose response assay for antagonists of the orexin 1 receptor (OX1R; HCRTR1). [Related pubchem assays (depositor defined):AID434989, AID435008, AID463079, AID485270, AID492963, AID492964, AID492965, AID493232, AID504717, AID504718]; assay type: functional
[41] = target: T3, Orexin/Hypocretin receptor type 1; assay: Fluorescence-based cell-based high throughput dose response assay for antagonists of the orexin 1 receptor (OX1R; HCRTR1). [Related pubchem assays (depositor defined):AID434989, AID435008, AID463079, AID485270, AID492963, AID492964, AID492965, AID493232, AID504717, AID504718]; assay type: functional
[42] = target: T4, Orexin receptor type 2 (Homo sapiens, UniProt O43614); assay: Counterscreen assay for antagonists of the orexin 1 receptor (OX1R; HCRTR1): Fluorescence-based cell-based dose response assay for antagonists of the orexin 2 receptor (OX2R; HCRTR2), run by assay provider.; assay type: functional
[43] = target: T4, Orexin receptor type 2; assay: Counterscreen assay for antagonists of the orexin 1 receptor (OX1R; HCRTR1): Homogeneous Time Resolved Fluorescence (HTRF)-based cell-based dose response assay for antagonists of the orexin 2 receptor (OX2R; HCRTR2), run by assay provider.; assay type: functional
[44] = target: Dual specificity protein kinase CLK1 (Homo sapiens, UniProt P49759); assay: CLK1 kinase inhibitors, off-target check, dose response, selectivity assay for Dyrk1A inhibitor project, biochemical, cherry-picked samples (AID 588811)
Sequence of Dual specificity protein kinase CLK1 (P49759 whole entry): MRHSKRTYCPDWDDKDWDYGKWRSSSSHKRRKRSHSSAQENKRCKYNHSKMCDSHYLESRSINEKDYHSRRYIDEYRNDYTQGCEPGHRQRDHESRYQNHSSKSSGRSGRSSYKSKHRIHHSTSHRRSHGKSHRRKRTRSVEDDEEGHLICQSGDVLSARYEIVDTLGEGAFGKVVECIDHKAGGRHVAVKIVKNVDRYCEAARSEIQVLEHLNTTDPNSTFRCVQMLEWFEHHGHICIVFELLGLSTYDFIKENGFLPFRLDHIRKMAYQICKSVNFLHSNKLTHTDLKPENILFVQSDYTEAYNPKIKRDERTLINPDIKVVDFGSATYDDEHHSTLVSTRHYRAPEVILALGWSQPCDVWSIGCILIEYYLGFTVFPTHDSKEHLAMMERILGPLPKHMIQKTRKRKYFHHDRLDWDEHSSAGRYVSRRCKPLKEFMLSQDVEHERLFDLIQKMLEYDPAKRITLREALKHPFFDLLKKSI

T3 sequence (O43613 whole entry): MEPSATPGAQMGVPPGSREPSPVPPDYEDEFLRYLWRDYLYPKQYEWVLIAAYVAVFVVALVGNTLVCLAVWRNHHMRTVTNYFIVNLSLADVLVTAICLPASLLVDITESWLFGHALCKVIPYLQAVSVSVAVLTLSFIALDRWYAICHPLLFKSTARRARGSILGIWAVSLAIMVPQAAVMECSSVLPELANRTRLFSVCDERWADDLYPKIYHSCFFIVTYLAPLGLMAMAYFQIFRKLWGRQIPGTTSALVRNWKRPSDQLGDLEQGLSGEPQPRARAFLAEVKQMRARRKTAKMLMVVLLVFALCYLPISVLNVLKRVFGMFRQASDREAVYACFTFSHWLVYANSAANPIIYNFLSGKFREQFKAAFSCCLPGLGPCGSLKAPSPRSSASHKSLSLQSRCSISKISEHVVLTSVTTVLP
T4 sequence (O43614 whole entry): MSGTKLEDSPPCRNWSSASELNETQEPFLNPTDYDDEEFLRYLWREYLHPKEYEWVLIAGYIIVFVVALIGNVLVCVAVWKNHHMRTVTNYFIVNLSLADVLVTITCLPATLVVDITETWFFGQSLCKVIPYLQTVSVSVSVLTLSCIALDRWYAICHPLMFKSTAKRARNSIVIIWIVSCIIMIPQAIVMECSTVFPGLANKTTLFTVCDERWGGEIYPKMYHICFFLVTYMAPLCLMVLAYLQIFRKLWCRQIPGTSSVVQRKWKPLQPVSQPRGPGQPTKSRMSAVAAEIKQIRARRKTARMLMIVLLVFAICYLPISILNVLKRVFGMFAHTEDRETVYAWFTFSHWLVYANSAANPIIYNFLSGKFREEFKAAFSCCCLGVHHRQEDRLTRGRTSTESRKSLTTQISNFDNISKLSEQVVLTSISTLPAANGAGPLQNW
Sequence of Luciferin 4-monooxygenase (P08659 whole entry): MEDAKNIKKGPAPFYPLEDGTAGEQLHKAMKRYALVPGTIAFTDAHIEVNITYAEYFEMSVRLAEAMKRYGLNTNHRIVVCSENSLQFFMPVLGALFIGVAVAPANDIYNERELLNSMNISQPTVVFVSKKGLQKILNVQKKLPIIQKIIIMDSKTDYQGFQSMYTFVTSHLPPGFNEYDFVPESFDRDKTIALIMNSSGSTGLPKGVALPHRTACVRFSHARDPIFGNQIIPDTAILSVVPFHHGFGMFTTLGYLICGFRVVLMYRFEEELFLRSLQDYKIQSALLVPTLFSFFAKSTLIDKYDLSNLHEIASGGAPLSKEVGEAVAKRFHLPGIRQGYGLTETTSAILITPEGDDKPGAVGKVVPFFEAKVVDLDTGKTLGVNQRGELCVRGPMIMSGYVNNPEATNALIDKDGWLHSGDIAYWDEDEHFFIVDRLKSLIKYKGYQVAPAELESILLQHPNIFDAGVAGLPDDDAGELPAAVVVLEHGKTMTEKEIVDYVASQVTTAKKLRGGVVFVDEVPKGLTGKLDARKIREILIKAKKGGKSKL
Sequence of Phospholipase A2 (P04054 whole entry): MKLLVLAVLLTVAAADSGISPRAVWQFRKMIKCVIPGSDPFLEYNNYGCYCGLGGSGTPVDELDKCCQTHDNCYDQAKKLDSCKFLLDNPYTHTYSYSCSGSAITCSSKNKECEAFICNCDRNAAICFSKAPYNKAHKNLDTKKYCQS
Sequence of Nuclear receptor subfamily 0 group B member 1 (P51843 whole entry): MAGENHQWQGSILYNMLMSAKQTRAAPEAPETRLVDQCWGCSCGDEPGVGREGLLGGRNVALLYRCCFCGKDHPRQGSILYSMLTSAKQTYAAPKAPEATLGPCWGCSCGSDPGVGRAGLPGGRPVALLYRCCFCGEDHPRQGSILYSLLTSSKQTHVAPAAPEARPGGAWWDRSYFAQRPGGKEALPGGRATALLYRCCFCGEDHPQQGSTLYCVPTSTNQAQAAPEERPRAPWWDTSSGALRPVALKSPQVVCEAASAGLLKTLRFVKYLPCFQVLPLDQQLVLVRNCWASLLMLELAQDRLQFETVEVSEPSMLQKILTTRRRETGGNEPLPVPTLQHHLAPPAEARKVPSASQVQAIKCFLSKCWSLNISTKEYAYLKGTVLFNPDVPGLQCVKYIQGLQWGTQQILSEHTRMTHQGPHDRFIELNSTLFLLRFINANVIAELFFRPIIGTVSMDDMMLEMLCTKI
Sequence of Cysteine protease ATG4B (Q9Y4P1 whole entry): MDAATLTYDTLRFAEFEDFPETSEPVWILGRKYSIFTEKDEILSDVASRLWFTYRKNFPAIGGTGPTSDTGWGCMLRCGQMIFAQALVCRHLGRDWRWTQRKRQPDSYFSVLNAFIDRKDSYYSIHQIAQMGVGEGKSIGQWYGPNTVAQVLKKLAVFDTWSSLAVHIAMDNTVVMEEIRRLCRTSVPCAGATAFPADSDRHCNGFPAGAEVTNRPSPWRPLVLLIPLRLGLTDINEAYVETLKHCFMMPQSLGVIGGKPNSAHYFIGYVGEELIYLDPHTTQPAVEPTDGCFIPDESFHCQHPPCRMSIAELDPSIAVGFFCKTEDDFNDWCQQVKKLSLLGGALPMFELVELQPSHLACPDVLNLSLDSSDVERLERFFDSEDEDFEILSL
Sequence of Phospholipase D2 (O14939 whole entry): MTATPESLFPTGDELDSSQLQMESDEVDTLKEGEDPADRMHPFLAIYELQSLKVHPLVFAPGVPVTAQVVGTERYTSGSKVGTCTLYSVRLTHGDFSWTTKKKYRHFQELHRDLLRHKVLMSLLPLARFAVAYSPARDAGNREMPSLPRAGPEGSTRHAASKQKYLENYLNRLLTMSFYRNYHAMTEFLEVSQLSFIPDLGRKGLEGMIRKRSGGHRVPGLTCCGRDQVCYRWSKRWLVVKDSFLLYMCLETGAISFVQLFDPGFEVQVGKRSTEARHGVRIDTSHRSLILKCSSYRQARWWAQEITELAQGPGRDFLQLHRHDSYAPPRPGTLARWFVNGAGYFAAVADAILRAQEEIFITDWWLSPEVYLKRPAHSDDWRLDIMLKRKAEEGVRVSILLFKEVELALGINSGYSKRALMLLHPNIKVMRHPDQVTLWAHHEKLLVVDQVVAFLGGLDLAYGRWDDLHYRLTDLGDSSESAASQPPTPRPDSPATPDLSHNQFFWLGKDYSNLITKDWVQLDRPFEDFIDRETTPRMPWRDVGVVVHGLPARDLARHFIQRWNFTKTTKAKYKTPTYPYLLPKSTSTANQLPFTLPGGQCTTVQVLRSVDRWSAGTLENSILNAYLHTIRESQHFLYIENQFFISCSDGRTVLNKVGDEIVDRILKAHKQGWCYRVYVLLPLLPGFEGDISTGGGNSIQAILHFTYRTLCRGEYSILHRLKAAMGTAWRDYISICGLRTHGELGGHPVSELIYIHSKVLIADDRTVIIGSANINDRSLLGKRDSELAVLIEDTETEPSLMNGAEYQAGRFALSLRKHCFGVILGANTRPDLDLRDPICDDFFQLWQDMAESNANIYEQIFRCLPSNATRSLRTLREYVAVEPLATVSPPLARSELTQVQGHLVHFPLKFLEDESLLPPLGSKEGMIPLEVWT
Sequence of Phospholipase D1 (Q13393 whole entry): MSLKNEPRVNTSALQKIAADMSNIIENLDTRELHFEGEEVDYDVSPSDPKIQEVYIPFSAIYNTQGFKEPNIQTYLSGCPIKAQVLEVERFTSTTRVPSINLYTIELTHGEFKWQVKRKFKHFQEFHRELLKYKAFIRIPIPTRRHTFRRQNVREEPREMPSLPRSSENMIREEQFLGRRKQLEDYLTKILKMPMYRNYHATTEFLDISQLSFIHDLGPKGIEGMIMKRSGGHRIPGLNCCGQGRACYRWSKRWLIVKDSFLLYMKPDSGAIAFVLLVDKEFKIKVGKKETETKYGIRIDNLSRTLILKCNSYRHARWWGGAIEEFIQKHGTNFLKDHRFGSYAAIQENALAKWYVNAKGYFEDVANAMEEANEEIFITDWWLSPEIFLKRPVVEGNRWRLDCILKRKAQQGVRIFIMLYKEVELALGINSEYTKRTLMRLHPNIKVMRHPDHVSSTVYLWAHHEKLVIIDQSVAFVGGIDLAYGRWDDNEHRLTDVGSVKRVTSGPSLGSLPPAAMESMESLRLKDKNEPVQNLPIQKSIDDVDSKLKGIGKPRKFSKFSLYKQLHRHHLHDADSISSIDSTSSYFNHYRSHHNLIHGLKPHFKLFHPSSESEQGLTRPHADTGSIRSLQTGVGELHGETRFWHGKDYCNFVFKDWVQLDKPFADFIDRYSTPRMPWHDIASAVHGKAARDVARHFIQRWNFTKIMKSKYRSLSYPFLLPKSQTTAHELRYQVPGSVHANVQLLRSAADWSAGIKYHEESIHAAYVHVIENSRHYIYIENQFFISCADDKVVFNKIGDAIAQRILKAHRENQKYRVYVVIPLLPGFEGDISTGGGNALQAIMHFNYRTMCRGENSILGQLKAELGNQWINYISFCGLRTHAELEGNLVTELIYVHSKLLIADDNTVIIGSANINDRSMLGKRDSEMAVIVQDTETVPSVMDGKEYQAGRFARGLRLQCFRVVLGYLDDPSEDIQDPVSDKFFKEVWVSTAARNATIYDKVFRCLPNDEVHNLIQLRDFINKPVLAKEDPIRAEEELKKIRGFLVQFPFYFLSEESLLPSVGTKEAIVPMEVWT

CCOc1ccc(-c2ccc(SC)nn2)cc1
> 150 µM (not active): EC50 [5]
active: EC50 [1] 11.5 µM | EC50 [2] 9.15 µM | EC50 [3] 2.3 µM | EC50 [4] 1.74 µM | EC50 [6] 9.86 µM | AC50 [7] 76.7 µM | AC50 [8] 5.17 µM | AC50 [9] 26.1 µM | AC50 [10] 20.8 µM | AC50 [11] 18.6 µM | AC50 [12] 15 µM | AC50 [13] 3.05 µM | AC50 [14] 2.36 µM | AC50 [15] 14 µM

C[C@@H]1CC=C[C@H]2[C@H]1C(=O)N(Cc1ccccc1)[C@H]2c1cccc([N+](=O)[O-])c1
active: AC50 [16] 58.9 µM | EC50 [17] 22.7 µM

CCn1nc(C(=O)Nc2nc(-c3ccccn3)cs2)c2ccccc2c1=O
active: AC50 [18] 11.4 µM | IC50 [19] 16.2 µM

N/C(Cc1ccc(Cl)cc1)=N\OC(=O)c1cccc2ccccc12
active: AC50 [20] 1.8 µM

Cc1ccc2nc3c(cc2c1)c(NC(=O)c1ccco1)nn3CC(C)C
inactive: IC50 [21] > 67.5 µM | IC50 [22] > 67.5 µM

O=C(NCC(c1cccs1)N1CCOCC1)c1cc([N+](=O)[O-])cc([N+](=O)[O-])c1 (stereo not given)
> 60 µM (not active): EC50 [25]
active: EC50 [23] 0.726 µM | CC50 [24] > 40 µM | CC50 [26] > 40 µM | IC50 [27] 1.37 µM | CC50 [28] 69 µM | CC50 [29] 44.4 µM | CC50 [30] > 50 µM

N#Cc1c(N)[nH]c2ccc(Sc3ccccc3)cc12
active: IC50 [31] 11.5 µM | IC50 [32] 9.57 µM

O=C(NCCN1CCC(C(=O)NCC2CC2)CC1)c1ccc2ccccc2c1
active: IC50 [33] 20 µM | IC50 [34] 20 µM

Cc1ccc(S(=O)(=O)Nc2cccc3ccc(C)nc23)cc1
inactive: IC50 [35] > 80 µM | IC50 [37] > 79 µM
active: IC50 [36] 1.79 µM

O=C(NC(Cc1c[nH]c2ccccc12)C(=O)N/N=C/c1ccc(Br)cc1)c1cccs1 (stereo not given)
inactive: IC50 [38] > 66.2 µM | IC50 [39] > 49.8 µM | IC50 [42] 14.3 µM | IC50 [43] 11.1 µM
active: IC50 [40] 2.99 µM | IC50 [41] 7.4 µM

Cc1nc(N)sc1-c1csc(Nc2ccccc2)n1
active: AC50 [44] 18.3 µM | AC50 [10] 14.4 µM
